This is an account of results in ChEMBL document CHEMBL1148967, “Correction of the structure of a new sesquiterpene from Cistus creticus ssp. creticus” (J Nat Prod, 2004).

The test system of one series is MCF7. Put plainly: Cytotoxicity against human MCF7 cells assessed as reduction in growth rate at 100 uM after 48 hrs. Further details: scale not given: the % may be the effect or the level left. It counts as functional.
Another series concerns NCI-H460. Put plainly: Cytotoxicity against human H460 cells assessed as reduction in growth rate at 100 uM after 48 hrs. Format: functional. Also noted: scale not given: the % may be the effect or the level left.
A further series deals with SF-268. The experiment in a line: Cytotoxicity against human SF268 cells assessed as reduction in growth rate at 100 uM after 48 hrs. Format: functional, cell-based.
A further series concerns PBMC. The experiment in a line: Cytotoxicity against human PBMC assessed as reduction in growth rate at 100 uM after 48 hrs. Format: cell-based.

SMILES strings stand for the structures. Activity calls are given as the source filed them. The rule behind the calls is not given here.

Turning to `C=C(C)[C@H]1CC=C2CCC[C@@H](C)[C@]2(C)C1`, the Activity is on record as 93.6% in the series on MCF7, 80.8% with NCI-H460 and “Non-toxic” in the series with PBMC. Further, in the series on SF-268, the result was inactive.
